Patent US20250360120A1, “METHODS OF TREATMENT OF DRAVET SYNDROME” (Noema Pharma AG, priority 2023, published 2025)

Tested on: Scn1a+/− mice
Experiment: Seizure frequency, seizure freedom and time to first seizure (frontal cortex EEG) in Scn1a+/− mice
Format: in vivo
Settings: for median time to first seizure: Kaplan-Meier, Untreated group 7 days; for Odds Ratio of seizure freedom (vs Untreated) / Probability of seizure freedom: GLM binomial
Description: Heterozygous deletion of Sca1a in mice (Scn1a+/−) recapitulates several core phenotypes of clinical Dravet syndrome, including temperature-dependent and spontaneous seizures, SUDEP, and behavioral abnormalities. […] As such, Scn1a+/−mice are a favourable model to enable translation of novel ASMs with varied mechanism of action to the clinic.
The experiment was conducted to evaluate the effect of Compound I, CTEP and RO6807794 on seizure frequency, seizure freedom and survival in Scn1a+/− mice.
Frontal cortex recordings were selected as representative of the seizure phenomenology on mice experiencing generalized seizures. EEG headmounts were implanted between P20-22 and recordings were initiated for continuous monitoring for a period of approximately 14-days for the NAM group and PAM group. Individual frontal cortex seizure measurements over time were visually explored and summaries across the time course were calculated. • 1. Seizure frequency
Seizure frequency was measured by count of the number of seizures observed each day. The frequency was analyzed using a Chi-square test (all treatments) and Fisher's Exact test (pairwise treatment comparisons). • 2. Seizure freedom
Seizure freedom was measured with a binary (0 or 1) endpoint, where it was recorded as a […] was recorded across the whole study. Seizure freedom was summarized across all animals into a contingency table and analyzed using a generalized linear model (GLM) with a binomial distribution for the errors and a logit link function. The results were presented as probabilities and odds ratios between groups and 95% confidence intervals. The odd ratio described how much more likely it is for an animal to have no seizures (Seizure freedom=1) in a treated group compared to the untreated group. Analyses were performed using GraphPad Prism 9 (contingency table) and SAS 9.4 (binomial model). • 3. Time to first seizure:
Time to first seizure refers the time recorded as the day on which the first seizure occurred (an observed, uncensored observation), or the final day of recording for that animal if on seizure was observed (a censored observation). Time to first seizure was visualized using a Kaplan-Meier plot and analyzed using a Log-rank (Mantel-Cox) test. Analyses were performed using GraphPad Prism 9. • 4. Total seizure burden
Total seizure burden is sum of the seizure frequency across all study days. • 5. Seizure per day
Seizure per day is measured by the total seizure count divided by the number of study days, wherein a seizure count measurement was adjusted by the number of days the animal was in the study.
Time to first seizure and Seizure per day were explored visually and analyzed using analysis of variance (ANOVA). Results were presented as geometric means, ratios of geometric means, confidence intervals and p-values. An additional non-parametric analysis, Kruskal-Wallis, was explored along with Wilcoxon pairwise comparisons to the Untreated group. The data was also analyzed using a generalized linear model (GLM) with a Poisson distribution for the errors and a log link function. The linear predictor described a model suitable for exploring a fixed effect of treatment group.

[1] = ANOVA on log10 adjusted scale, 0.3 mg/kg IP once daily for 5-days from P21
[2] = Generalized Linear Model on discrete (count) data, 0.3 mg/kg IP once daily for 5-days from P21
[3] = 0.3 mg/kg PO once daily for 28-days from P10
[4] = 1 mg/kg PO once daily for 28-days from P10
[5] = ANOVA on log10 adjusted scale, 0.3 mg/kg PO once daily for 28-days from P10
[6] = ANOVA on log10 adjusted scale, 1 mg/kg PO once daily for 28-days from P10
[7] = Generalized Linear Model on discrete (count) data, 0.3 mg/kg PO once daily for 28-days from P10
[8] = Generalized Linear Model on discrete (count) data, 1 mg/kg PO once daily for 28-days from P10
[9] = Kruskal-Wallis with Wilcoxon pairwise tests, 1 mg/kg PO once daily for 28-days from P10
[10] = exploratory ANOVA on log10 scale, 0.3 mg/kg PO once daily for 28-days from P10
[11] = exploratory ANOVA on log10 scale, 1 mg/kg PO once daily for 28-days from P10
[12] = 0.3 mg/kg PO every other day for 28-days
[13] = ANOVA on log10 adjusted scale, 0.3 mg/kg PO every other day for 28-days
[14] = Generalized Linear Model on discrete (count) data, 0.3 mg/kg PO every other day for 28-days
[15] = Kruskal-Wallis with Wilcoxon pairwise tests, 0.3 mg/kg PO every other day for 28-days
[16] = exploratory ANOVA on log10 scale, 0.3 mg/kg PO every other day for 28-days

## CN(C(=O)c1ncc(C#Cc2cccc(F)c2)cn1)C(C)(C)C [RO6807794, reference compound]
[1]
  Seizure per day, % Change compared to untreated group: 751.1%
  Seizure per day, Geometric Mean: 1.046
  Seizure per day, Ratio of Means compared to untreated group: 8.51
GLM on discrete (count) data, 0.3 mg/kg IP once daily for 5-days from P21
  seizure per day rates compared to the Untreated group (in words): statistically significantly increased seizure per day rates
[2]
  Seizure per day, % Change vs Untreated: 407.47%
  Seizure per day, Geometric Mean: 2.490
  Seizure per day, Ratio of Means vs Untreated: 5.07
0.3 mg/kg IP once daily for 5-days from P21
  median time to first seizure: 3 days
Kruskal-Wallis with Wilcoxon pairwise tests, 0.3 mg/kg IP once daily for 5-days from P21
  seizure per day rates compared to the Untreated group (in words): increased seizure per day rates

## Cc1nc(C#Cc2ccnc(Cl)c2)c(C)n1-c1ccc(F)cc1 [Compound I, 2-chloro-4-[1-(4-fluorophenyl)-2,5-dimethyl-1H-imidazol-4-ylethynyl]pyridine]
[3]
  Frequency of animals with At least 1 Seizure: 10
  Frequency of animals with No Seizures (seizure freedom): 1
  Percent of animals with At least 1 Seizure: 90.9%
  Percent of animals with No Seizures (seizure freedom): 9.1%
  Odds Ratio of seizure freedom (vs Untreated): 0.3
  Probability of seizure freedom: 0.09
  median time to first seizure: 2 days
[4]
  Frequency of animals with At least 1 Seizure: 3
  Frequency of animals with No Seizures (seizure freedom): 10
  Percent of animals with At least 1 Seizure: 23.1%
  Percent of animals with No Seizures (seizure freedom): 76.9%
  animals with Seizure Freedom over time (Kaplan-Meier, in words): more animals with Seizure Freedom for a longer duration
  Odds Ratio of seizure freedom (vs Untreated): 10
  Probability of seizure freedom: 0.77
1 mg/kg PO once daily for 28-days from P10, 25% in the Untreated group
  chance of seizure freedom: 77%
[5]
  Seizure per day, % Change compared to untreated group: 183.96%
  Seizure per day, Geometric Mean: 0.349
  Seizure per day, Ratio of Means compared to untreated group: 2.84
[6]
  Seizure per day, % Change compared to untreated group: −84.81%
  Seizure per day, Geometric Mean: 0.019
  Seizure per day, Ratio of Means compared to untreated group: 0.15
  reduction of average seizure per day compared to the Untreated group: 79%
GLM on discrete (count) data, 1 mg/kg PO once daily for 28-days from P10
  reduction of total seizure burden compared to the Untreated group: 44%
[7]
  Seizure per day, % Change vs Untreated: 85.38%
  Seizure per day, Geometric Mean: 0.910
  Seizure per day, Ratio of Means vs Untreated: 1.85
  Total Seizure Burden, % Change vs Untreated: 87.21%
  Total Seizure Burden, Geometric Mean: 12.64
  Total Seizure Burden, Ratio of Means vs Untreated: 1.87
[8]
  Seizure per day, % Change vs Untreated: −46.32%
  Seizure per day, Geometric Mean: 0.263
  Seizure per day, Ratio of Means vs Untreated: 0.54
  Total Seizure Burden, % Change vs Untreated: −44.16%
  Total Seizure Burden, Geometric Mean: 3.77
  Total Seizure Burden, Ratio of Means vs Untreated: 0.56
[9]
  seizure per day rates compared to the Untreated group (in words): decreased seizure per day rates
  total seizure burden compared to the Untreated group (in words): lower total seizure burden
[10]
  Total Seizure Burden, % Change compared to Untreated group: 136.21%
  Total Seizure Burden, Geometric Mean: 4.16
  Total Seizure Burden, Ratio of Means compared to Untreated group: 2.36
[11]
  Total Seizure Burden, % Change compared to Untreated group: −84.25%
  Total Seizure Burden, Geometric Mean: 0.28
  Total Seizure Burden, Ratio of Means compared to Untreated group: 0.16
  reduction of total seizure burden compared to the Untreated group: 84%

## Cc1nc(C#Cc2ccnc(Cl)c2)c(C)n1-c1ccc(OC(F)(F)F)cc1 [CTEP, reference compound]
[12]
  Frequency of animals with At least 1 Seizure: 4
  Frequency of animals with No Seizures (seizure freedom): 11
  Percent of animals with At least 1 Seizure: 26.7%
  Percent of animals with No Seizures (seizure freedom): 73.3%
  animals with Seizure Freedom over time (Kaplan-Meier, in words): more animals with Seizure Freedom for a longer duration
  Odds Ratio of seizure freedom (vs Untreated): 8.25
  Probability of seizure freedom: 0.73
[13]
  Seizure per day, % Change compared to untreated group: −79.05%
  Seizure per day, Geometric Mean: 0.026
  Seizure per day, Ratio of Means compared to untreated group: 0.21
  reduction of average seizure per day compared to the Untreated group: 85%
GLM on discrete (count) data, 0.3 mg/kg PO every other day for 28-days
  reduction of total seizure burden compared to the Untreated group: 62%
[14]
  Seizure per day, % Change vs Untreated: −23.56%
  Seizure per day, Geometric Mean: 0.375
  Seizure per day, Ratio of Means vs Untreated: 0.76
  Total Seizure Burden, % Change vs Untreated: −62.47%
  Total Seizure Burden, Geometric Mean: 2.53
  Total Seizure Burden, Ratio of Means vs Untreated: 0.38
[15]
  seizure per day rates compared to the Untreated group (in words): decreased seizure per day rates
  total seizure burden compared to the Untreated group (in words): lower total seizure burden
[16]
  Total Seizure Burden, % Change compared to Untreated group: −82.08%
  Total Seizure Burden, Geometric Mean: 0.32
  Total Seizure Burden, Ratio of Means compared to Untreated group: 0.18
  reduction of total seizure burden compared to the Untreated group: 82%
